The values below are quoted from earlier work in patent publication US20170042147A1, “A miticide composition of prolonged action and its manufacturing process, a miticide strip and a procedure to control Varroa destructor mite” (COOP. DE TRABAJO APÍCOLA PAMPERO LTDA, priority 2014, published 2017).

The data set relates to Varroa. As to conditions: bee hives without brood; use in Europe.

Consider `O=C(O)C(=O)O` [Oxalic acid], for which the “efficacy against Varroa” value is given as “excellent efficacy”.
